≈ marks a conversion by molar mass, not a printed value.
Key:
Test in all cases: MIC on standard strains, standard method of Japan Society of Chemotherapy
Format in all cases: cell-based
[1] = tested on: P. aeruginosa AKR17; settings: Pseudomonas aeruginosa
Method: (§1) Antimicrobial activity of the compounds of the present invention were measured using CTM (cefotiam) and FMOX (flomoxef) as control drugs in accordance with the standard method of Japan Society of Chemotherapy. Of the 25 standard strains used in this test, Staphylococcus aureus 167 and Staphylococcus aureus 195 belong to MRSA.
(§2) In these tables, drugs tested are shown by the corresponding examples in which they were synthesized.

[2] = tested on: S. epidemidis IAM 1296
Method: as §1, §2

[3] = tested on: E. coli CSH2(RK1); settings: Escherichia coli
Method: as §1, §2

[4] = tested on: C. freundii ATCC 8090; settings: Citrobacter freundii, ATCC8090, C. freundii ATCC 8090; read-out: MIC
Method: as §1, §2

[5] = tested on: B. subtilis ATCC 6633; settings: Bacillus subtilis, ATCC6633, B. subtilis ATCC 6633; read-out: MIC
Method: as §1, §2

[6] = tested on: S. aureus 209p JC-1; settings: Staphylococcus aureus, 209P, read-out: MIC
Method: as §1, §2

[7] = tested on: E. coli NHIJ JC-2; settings: Escherichia coli, NHIJJC2
Method: as §1, §2

[8] = tested on: E. coli CSH2(RE45); settings: Escherichia coli
Method: as §1, §2

[9] = tested on: P. mirabilis IFO 3849; settings: Proteus mirabilis, IFO3849, P. mirabilis IFO 3849; read-out: MIC
Method: as §1, §2

[10] = tested on: S. aureus 195; settings: Staphylococcus aureus; S. aureus 195 (MRSA)
Method: as §1, §2

[11] = tested on: A. calcoaceticos T59; settings: read-out: MIC
Method: as §1, §2

[12] = tested on: K. pneuminiae No. 42
Method: as §1, §2

[13] = tested on: P. cepacia; settings: Burkholderia cepacia, read-out: MIC
Method: as §1, §2

[14] = tested on: P. vulugaris OX-19
Method: as §1, §2

[15] = tested on: S. aureus Smith; settings: Staphylococcus aureus, read-out: MIC
Method: as §1, §2

[16] = tested on: E. cloacae Nek39; settings: Enterobacter cloacae, NEK39, E. cloacae Nek39; read-out: MIC
Method: as §1, §2

[17] = tested on: S. marcescens No. 16-2; settings: Serratia marcescens, NO.162
Method: as §1, §2

[18] = tested on: E. cloacae ATCC 13407; settings: Enterobacter cloacae, ATCC13407, E. cloacae ATCC 13407; read-out: MIC
Method: as §1, §2

[19] = tested on: S. aureus 167; settings: Staphylococcus aureus; S. aureus 167 (MRSA)
Method: as §1, §2

[20] = tested on: K. pneuminiae IFO 3317
Method: as §1, §2

[21] = tested on: M. morganii IFO 3848; settings: Morganella morganii, IFO3848
Method: as §1, §2

[22] = tested on: S. marcescens IAM 1184; settings: Serratia marcescens, IAM1184, S. marcescens IAM 1184; read-out: MIC
Method: as §1, §2

[23] = tested on: M. luteus ATCC 9341; settings: Micrococcus luteus, ATCC9341
Method: as §1, §2

[24] = tested on: A. faecalis ATCC 3750; settings: Alcaligenes faecalis, ATCC3750, A. faecalis ATCC 3750; read-out: MIC
Method: as §1, §2

[25] = tested on: P. aeruginosa NCTC 10490; settings: Pseudomonas aeruginosa, NCTC10490, P. aeruginosa NCTC 10490; read-out: MIC
Method: as §1, §2

In the case of `Nc1nc(/C(=N/O)C(=O)N[C@@H]2C(=O)N3C(C(=O)[O-])=C(C[n+]4ccc(-c5nsc(N)n5)cc4)CS[C@H]23)cs1` [Ex. 11, 7β-[2-(2-aminothiazol-4-yl)-2-syn-hydroxyiminoacetamido]-3-[4-(5-amino-1,2,4-thiadiazol-3-yl)pyridinio]methyl-3-cephem-4-carboxylate], the MIC [1] is reported as > 100 µg/mL, the MIC [2] is reported as 0.05 µg/mL (≈ 0.0893 µM) and the MIC [3] is reported as 0.39 µg/mL (≈ 0.697 µM). For the same compound, the MIC [4] was 0.2 µg/mL (≈ 0.357 µM), the MIC [5] was 0.1 µg/mL (≈ 0.179 µM) and the MIC [6] was 0.1 µg/mL (≈ 0.179 µM). It also gave an MIC [7] of 0.1 µg/mL (≈ 0.179 µM), an MIC [8] of 0.2 µg/mL (≈ 0.357 µM) and an MIC [9] of 0.2 µg/mL (≈ 0.357 µM). For the same compound, the MIC [10] was 1.56 µg/mL (≈ 2.79 µM), the MIC [11] was 25 µg/mL (≈ 44.7 µM) and the MIC [12] was 0.39 µg/mL (≈ 0.697 µM). The MIC [13] was > 100 µg/mL, the MIC [14] was 0.1 µg/mL (≈ 0.179 µM) and the MIC [15] was 0.1 µg/mL (≈ 0.179 µM). For the same compound, the MIC [16] was > 100 µg/mL, the MIC [17] was 100 µg/mL (≈ 179 µM) and the MIC [18] was 6.25 µg/mL (≈ 11.2 µM). For the same compound, the MIC [19] was 6.25 µg/mL (≈ 11.2 µM), the MIC [20] was 0.1 µg/mL (≈ 0.179 µM) and the MIC [21] was 0.05 µg/mL (≈ 0.0893 µM). It also gave an MIC [22] of 0.39 µg/mL (≈ 0.697 µM), an MIC [23] of 0.05 µg/mL (≈ 0.0893 µM) and an MIC [24] of 1.56 µg/mL (≈ 2.79 µM). It also gave an MIC [25] of 3.13 µg/mL (≈ 5.59 µM).

With `NC(=O)Cc1ccc[n+](CC2=C(C(=O)[O-])N3C(=O)[C@@H](NC(=O)/C(=N\O)c4nsc(N)n4)[C@H]3SC2)c1` [Ex. 1, 7β-[2-(5-amino-1,2,4-thiadiazol-3-yl)-2-syn-hydroxyiminoacetamido]-3-(3-carbamoylmethylpyridinio)methyl-3-cephem-4-carboxylate] the MIC [1] was > 100 µg/mL, the MIC [2] was 0.39 µg/mL (≈ 0.752 µM) and the MIC [3] was 3.13 µg/mL (≈ 6.04 µM). It also gave an MIC [4] of 1.56 µg/mL (≈ 3.01 µM), an MIC [5] of 0.39 µg/mL (≈ 0.752 µM) and an MIC [6] of 0.78 µg/mL (≈ 1.5 µM). The MIC [7] was 1.56 µg/mL (≈ 3.01 µM), the MIC [8] was 3.13 µg/mL (≈ 6.04 µM) and the MIC [9] was 1.56 µg/mL (≈ 3.01 µM). The MIC [10] was 12.5 µg/mL (≈ 24.1 µM), the MIC [11] was 3.13 µg/mL (≈ 6.04 µM) and the MIC [12] was 1.56 µg/mL (≈ 3.01 µM). The MIC [13] was > 100 µg/mL, the MIC [14] was 3.13 µg/mL (≈ 6.04 µM) and the MIC [15] was 1.56 µg/mL (≈ 3.01 µM). For the same compound, the MIC [16] was 100 µg/mL (≈ 193 µM), the MIC [17] was > 100 µg/mL and the MIC [18] was 3.13 µg/mL (≈ 6.04 µM). The MIC [19] was 12.5 µg/mL (≈ 24.1 µM), the MIC [20] was 0.78 µg/mL (≈ 1.5 µM) and the MIC [21] was 1.56 µg/mL (≈ 3.01 µM). It also gave an MIC [22] of 0.78 µg/mL (≈ 1.5 µM), an MIC [23] of 0.2 µg/mL (≈ 0.386 µM) and an MIC [24] of 6.25 µg/mL (≈ 12.1 µM). The MIC [25] was 0.78 µg/mL (≈ 1.5 µM).

For `NC(=NO)c1cc[n+](CC2=C(C(=O)[O-])N3C(=O)[C@@H](NC(=O)/C(=N\O)c4csc(N)n4)[C@H]3SC2)cc1` [Ex. 20, 7β-[2-(2-aminothiazol-4-yl)-2-syn-hydroxyiminoacetamido]-3-[4-(1-amino-1-hydroxyiminomethyl)pyridinio]methyl-3-cephem-4-carboxylate], the MIC [1] was > 100 µg/mL, the MIC [2] was 0.05 µg/mL (≈ 0.0964 µM) and the MIC [3] was 0.39 µg/mL (≈ 0.752 µM). For the same compound, the MIC [4] was 0.2 µg/mL (≈ 0.386 µM), the MIC [5] was 0.2 µg/mL (≈ 0.386 µM) and the MIC [6] was 0.2 µg/mL (≈ 0.386 µM). It also gave an MIC [7] of 0.2 µg/mL (≈ 0.386 µM), an MIC [8] of 0.2 µg/mL (≈ 0.386 µM) and an MIC [9] of 0.2 µg/mL (≈ 0.386 µM). The MIC [10] was 3.31 µg/mL (≈ 6.38 µM), the MIC [11] was 6.25 µg/mL (≈ 12.1 µM) and the MIC [12] was 0.39 µg/mL (≈ 0.752 µM). For the same compound, the MIC [13] was > 100 µg/mL, the MIC [14] was 0.2 µg/mL (≈ 0.386 µM) and the MIC [15] was 0.39 µg/mL (≈ 0.752 µM). It also gave an MIC [16] of 50 µg/mL (≈ 96.4 µM), an MIC [17] of 100 µg/mL (≈ 193 µM) and an MIC [18] of 12.5 µg/mL (≈ 24.1 µM). For the same compound, the MIC [19] was 6.25 µg/mL (≈ 12.1 µM), the MIC [20] was 0.1 µg/mL (≈ 0.193 µM) and the MIC [21] was 0.1 µg/mL (≈ 0.193 µM). It also gave an MIC [22] of 0.1 µg/mL (≈ 0.193 µM), an MIC [23] of 0.025 µg/mL (≈ 0.0482 µM) and an MIC [24] of 0.78 µg/mL (≈ 1.5 µM). For the same compound, the MIC [25] was 0.78 µg/mL (≈ 1.5 µM).

With `Nc1nc(/C(=N/O)C(=O)N[C@@H]2C(=O)N3C(C(=O)[O-])=C(C[n+]4cccc(-c5ncno5)c4)CS[C@H]23)ns1` [Ex. 5, 7β-[2-(5-amino-1,2,4-thiadiazol-3-yl)-2-syn-hydroxyiminoacetamido]-3-[3-(1,2,4-oxadiazol-5-yl)pyridinio]methyl-3-cephem-4-carboxylate] the MIC [1] was > 100 µg/mL, the MIC [2] was 0.78 µg/mL (≈ 1.47 µM) and the MIC [3] was 12.5 µg/mL (≈ 23.6 µM). The MIC [4] was 6.25 µg/mL (≈ 11.8 µM), the MIC [5] was 0.78 µg/mL (≈ 1.47 µM) and the MIC [6] was 1.56 µg/mL (≈ 2.95 µM). The MIC [7] was 6.25 µg/mL (≈ 11.8 µM), the MIC [8] was 6.25 µg/mL (≈ 11.8 µM) and the MIC [9] was 3.13 µg/mL (≈ 5.91 µM). It also gave an MIC [10] of 50 µg/mL (≈ 94.4 µM), an MIC [11] of 12.5 µg/mL (≈ 23.6 µM) and an MIC [12] of 6.25 µg/mL (≈ 11.8 µM). For the same compound, the MIC [13] was > 100 µg/mL, the MIC [14] was 6.25 µg/mL (≈ 11.8 µM) and the MIC [15] was 3.13 µg/mL (≈ 5.91 µM). The MIC [16] was 100 µg/mL (≈ 189 µM), the MIC [17] was > 100 µg/mL and the MIC [18] was 25 µg/mL (≈ 47.2 µM). For the same compound, the MIC [19] was 50 µg/mL (≈ 94.4 µM), the MIC [20] was 3.13 µg/mL (≈ 5.91 µM) and the MIC [21] was 3.13 µg/mL (≈ 5.91 µM). The MIC [22] was 6.25 µg/mL (≈ 11.8 µM), the MIC [23] was 0.39 µg/mL (≈ 0.737 µM) and the MIC [24] was 12.5 µg/mL (≈ 23.6 µM). The MIC [25] was 3.13 µg/mL (≈ 5.91 µM).
